Patent US5541343A, “Cyclic imino derivatives and pharmaceutical compositions containing them” (Karl Thomae GmbH, priority 1990, dated 1996)
Structures can show the parent of a compound that is named as a salt.

Key:
[1] = tested on: platelet aggregation; experiment: Antithrombotic effect: collagen-induced platelet aggregation (Born and Cross method) in platelet-rich plasma; assay type: cell-based; settings: Homo sapiens, 10 minutes preincubation at 37° C., 50% change in optical density, read-out: Inhibition of platelet aggregation EC50
Experimental: The thrombocyte aggregation is measured by the Born and Cross method (J. Physiol. 170: 397 (1964)) in platelet-rich plasma from healthy test subjects. To inhibit coagulation, 3.14% sodium citrate is added to the blood in a ratio by volume of 1:10.
Collagen-induced aggregation
The curve of the decrease in optical density of the platelet suspension is measured and recorded photometrically after the addition of the aggregation-inducing substance. The speed of aggregation is determined from the angle of inclination of the density curve. The point on the curve where maximum transmittance occurs is used to calculate the optical density.
The quantity of collagen is made as small as possible but sufficient to produce an irreversible reaction curve. Standard commercial collagen made by Hormonchemie of Munich is used. Before the addition of collagen, the plasma is incubated for 10 minutes with the substance at 37° C.
From the measurements obtained, an EC50 is determined graphically relating to a 50% change in the optical density in the sense of an inhibition of aggregation.

[2] = target: human thrombocytes; experiment: Fibrinogen binding to human thrombocytes; settings: gel-filtered platelets, 125-J-fibrinogen, 20 minutes at ambient temperature; read-out: Fibrinogen binding test IC50
Experimental: 1. Fibrinogen binding to human thrombocytes
Blood obtained by puncture of an antecubital vein is anticoagulated with trisodium citrate (final concentration: 13 mM) and centrifuged for 10 minutes at 170 g. The supernatant platelet-rich plasma is placed on a Sepharose 2B column (Pharmacia) and eluted with a solution of 90 mM common salt, 14 mM trisodium citrate, 5 mM glucose and 50 mM tris(hydroxymethyl)aminomethane, adjusted to pH 7.4. The gel-filtered platelets (GFP) appearing in front of the plasma proteins are used for the binding tests.
50 μl of a 60 mM calcium chloride solution, 50 μl of a 0.6 mM adenosine diphosphate solution, 100 μl of substance solution or solvent and 50 μl of fibrinogen solution (containing 3 μg 125-J-fibrinogen) are added to 750 μl of GFP and incubated for 20 minutes at ambient temperature. The non-specific binding is measured in the presence of 3 mg/ml of cold fibrinogen.
900 μl of the incubate are carefully pipetted onto 250 μl of silicon oil (AP 38: AR 20, 1:2 v/v, Wacker Chemie) in Eppendorf vessels and centrifuged for 2 minutes at 10,000 g. The aqueous supernatant and some of the oil are removed, the tip of the vessel with the platelet pellet is cut off and the quantity of bound fibrinogen is measured in a gamma-counter. The concentration of substance which inhibits fibrinogen binding by 50% is calculated from a concentration series and given as the IC50.

[3] = tested on: collagen-induced thrombocyte aggregation; experiment: Collagen-induced thrombocyte aggregation ex vivo in rhesus monkeys following oral administration; settings: 1 mg/kg
Experimental: Moreover, the compound of Example 70(1), for example, inhibits collagen-induced thrombocyte aggregation ex vivo in rhesus monkeys following oral administration of 1 mg/kg for more than 8 hours.

[4] = Approximate LD50 in rats (tolerability); settings: rat, in vivo, after intravenous route
Experimental: The new compounds are well tolerated since the approximate LD50 in rats is, for example, for the compound of Example (3) above 100 mg/kg after intravenous route and for the compound of Example 70(1) above 2.000 mg/kg after oral administration.

Structure (SMILES)	EC50 [1] [nM]	IC50 [2] [nM]	inhibits collagen-induced thrombocyte aggregation ex vivo (duration of inhibition) [3]	LD50 [4] [mg/kg]
N=C(N)c1ccc(-c2ccc(S(=O)(=O)NC[C@@H]3C[C@@H](CC(=O)O)C(=O)N3CCCc3ccccc3)cc2)cc1 [7(70)]	19000	400	–	–
NCCCCc1ccc(OC[C@@H]2C[C@@H](CC(=O)O)C(=O)N2CCCc2ccccc2)cc1 [23(8), (3S,5S)-5-[[4-(4-aminobutyl)phenyl]oxymethyl]-3-carboxymethyl-1-(3-phenylpropyl)-2-pyrrolidinonesemihydrate ×1.25 HCl]	20000	4600	–	–
N=C(N)c1ccc(-c2ccc(OC[C@@H]3C[C@@H](CC(=O)O)C(=O)N3CCCc3ccccc3)cc2)cc1 [Example 7, (3S,5S)-5-[(4'-Amidino-4-biphenylyl)oxymethyl)-3-carboxymethyl-1-(3-phenylpropyl)-2-pyrrolidinone-hydrate]	900	32	–	–
COC(=O)C[C@@H]1C[C@@H](COc2ccc(-c3ccc(C(=N)NC(=O)OC)cc3)cc2)NC1=O [Example 70(1), (3S,5S)-5-[[4'-(N-methoxycarbonylamidino)-4biphenylyl]oxymethyl]-3-[(methoxycarbonyl)methyl]-2-pyrrolidinone]	–	–	more than 8 hours	–
NC1CCc2cc(C(=O)NCC[C@@H]3C[C@@H](CC(=O)O)C(=O)N3CCCc3ccccc3)ccc2C1 (stereo partly drawn) [Example 32, (3S,5S)-5-[2-[(6-Amino-5,6,7,8-tetrahydro-2-naphthylcarbonyl)amino]ethyl]-3-carboxymethyl-1-(3-phenylpropyl)-2-pyrrolidinone-semihydrate]	5800	1200	–	–
Cc1c(OC[C@@H]2C[C@@H](CC(=O)O)C(=O)N2CCCc2ccccc2)ccc(-c2ccc(C(=N)N)cc2)c1C [7(10), (3S,5S)-5-[(4'-amidino-2,3-dimethyl-4-biphenylyl)oxymethyl]-3-carboxymethyl-1-(3-phenylpropyl)-2-pyrrolidinone-hydrate]	2600	50	–	–
N=C(N)c1ccc(-c2ccc(OC[C@H]3CNC(=O)[C@@H]3CC(=O)O)cc2)cc1 (relative stereo) [7(89), (3R,S;4R,S)-4-[(4'-amidino-4-biphenylyl)oxymethyl]-3-carboxymethyl-2-pyrrolidinone]	2800	230	–	–
N=C(N)c1ccc(-c2ccc(OC[C@@H]3C[C@@H](CC(=O)O)C(=O)N3c3ccccc3)cc2)cc1 [7(1), (3S,5S)-5-[(4'-amidino-4-biphenylyl)oxymethyl]-3-carboxymethyl-1-phenyl-2-pyrrolidinone-dihydrate]	170	24	–	–
CC(=O)N(C[C@@H]1C[C@@H](CC(=O)O)C(=O)N1CCCc1ccccc1)c1ccc(-c2ccc(C(=N)N)cc2)cc1 [7(40), (3S,5S)-5-[[N-(4'-amidino-4-biphenylyl)-N-acetyl]aminomethyl]-3-carboxymethyl-1-(3-phenylpropyl)-2-pyrrolidinonehydrate]	2000	170	–	–
N=C(N)c1ccc(-c2ccc(OC[C@@H]3C[C@@H](CC(=O)O)C(=O)N3)cc2)cc1 [7(3), (3S,5S)-5-[(4'-amidino-4-biphenylyl)oxymethyl]-3-carboxymethyl-2-pyrrolidinone]	60	31	–	–
COC(=O)C[C@@H]1C[C@@H](COc2ccc(-c3ccc(C(=N)N)cc3)cc2)NC1=O [6(2), (3S,5S)-5-[(4'-amidino-4-biphenylyl)oxymethyl]-3-[(methoxycarbonyl)methyl]-2-pyrrolidinone×1.25 HCl]	1900	2300	–	–
N=C(NO)c1ccc(-c2ccc(OC[C@@H]3C[C@@H](CC(=O)O)C(=O)N3)cc2)cc1 [Example 71, (3S,5S)-3-Carboxymethyl-5-[[4'-(N-hydroxyamidino)-4biphenylyl)oxymethyl]-2-pyrrolidinone]	11000	4600	–	–
N=C(N)c1ccc(Nc2ccccc2C(=O)NC[C@@H]2C[C@@H](CC(=O)O)C(=O)N2CCCc2ccccc2)cc1 [7(41), (3S,5S)-5-[[2-[(4-amidinophenyl)amino]phenyl]carbonylaminomethyl]-3-carboxymethyl-1-(3-phenylpropyl)-2-pyrrolidinone]	19000	2800	–	–
N=C(N)NCCCCCOc1ccc([C@@H]2C[C@@H](CC(=O)O)C(=O)N2CCCc2ccccc2)cc1 (relative stereo) [31(1), (3S,R;5S,R)-3-carboxymethyl-5-[4-[(5-guanidinopentyl)oxy]phenyl]-1-(3-phenylpropyl)-2-pyrrolidinone]	66000	4700	–	–
CN(C)C(=O)CN1C(=O)[C@H](CC(=O)O)C[C@H]1COc1ccc(-c2ccc(C(=N)N)cc2)cc1 [7(51), (3S,5S)-5-[(4'-amidino-4-biphenylyl)oxymethyl]-3-carboxymethyl-1-[(dimethylaminocarbonyl)methyl]-2-pyrrolidinone hydrochloride-semihydrate]	80	27	–	–
CN(C)S(=O)(=O)N1C[C@H](CC(=O)O)C[C@H]1COc1ccc(-c2ccc(C(=N)N)cc2)cc1 [7(58), (3S,5S)-5-[(4'-amidino-4-biphenylyl)oxymethyl]-3-carboxymethyl-1-(dimethylaminosulphonyl)-pyrrolidine×0.25 water]	210	20	–	–
N=C(N)c1cccc(C(=O)c2ccc(OC[C@@H]3C[C@@H](CC(=O)O)C(=O)N3CCCc3ccccc3)cc2)c1 [7(46), (3S,5S)-5-[[4-[(3-amidinophenyl)carbonyl]phenyl]oxymethyl]-3-carboxymethyl-1-(3-phenylpropyl)-2-pyrrolidinone]	12000	690	–	–
N=C(N)c1ccc(-c2ccc(OC[C@@H]3C[C@@H](CC(=O)O)C(=O)N3)cc2)cc1 [Example (3), (3S,5S)-5-[(4'-amidino-4-biphenylyl)oxymethyl]-3-carboxymethyl-2-pyrrolidinone]	–	–	–	> 100
CC(=O)N1C[C@H](CC(=O)O)C[C@H]1COc1ccc(-c2ccc(C(=N)N)cc2)cc1 [7(56), (3S,5S)-1-acetyl-5-[(4'-amidino-4-biphenylyl)oxymethyl]-3-carboxymethyl-pyrrolidine-semihydrate]	60	20	–	–
NCCCC(=O)Nc1ccc(OC[C@@H]2C[C@@H](CC(=O)O)C(=O)N2CCCc2ccccc2)cc1 [32(1), (3S,5S)-5-[[4-[(3-aminopropyl)carbonylamino]phenyl]oxymethyl]-3-carboxymethyl-1-(3-phenylpropyl)-2-pyrrolidinone]	33000	2200	–	–
N=C(N)c1ccc2c(c1)C(=O)c1cc(OC[C@@H]3C[C@@H](CC(=O)O)C(=O)N3CCCc3ccccc3)ccc1-2 [7(36), (3S,5S)-5-[(7-amidino-9-keto-2-fluorenyl)oxymethyl]-3-carboxymethyl-1-(3-phenylpropyl)-2-pyrrolidinone]	410	41	–	–
N=C(N)c1ccc(-c2ccc(OC[C@@H]3C[C@@H](CC(=O)O)C(=O)N3)cc2)cc1F [7(93), (3S,5S)-5-[(4'-amidino-3'-fluoro-4-biphenylyl)oxymethyl]-3-carboxymethyl-2-pyrrolidinone]	100	26	–	–
N=C(N)c1ccc(-c2ccc(N3CC(CP(=O)(O)O)CC3=O)cc2)cc1 (centres unmarked) [6(184), 1-(4'-amidino-4-biphenylyl)-4-phosphonomethyl-2-pyrrolidinone]	1000	420	–	–
